# Patent US6756359B2, “C12 modified erythromycin macrolides and ketolides having antibacterial activity” (Chiron Corporation, priority 2001, dated 2004)
# Assays:
# Test in all cases: Antibacterial activity in vitro, MIC by broth microdilution
# H. influenzae Hain_49247 = type: cell-based, Haemophilus influenzae; settings: Table 5, Strain ID M: H. influenzae Hain_49247; unit assumed
# Method: (§1) Representative compounds of the present invention were assayed in vitro for antibacterial activity against the bacterial isolates listed in Table 1 as follows:
# (§2) The bacterial isolates listed in Table 1 were cultivated from −70° C. frozen stocks by two consecutive overnight passages (P1, P2) at 35° C. on 5% blood agar (Remel, Lenexa, Kans.). Chocolate agar (Remel) is used for Haemophilus influenzae. H. influenzae and Streptococcus pneumoniae are incubated in 5-10% CO2.
# (§3) To determine the amount of solvent to be used to give the desired final concentration, the formula “weight obtained in mg/final concentration in mg/mL” will be used. It will give the amount of solvent in mL needed to be added to give the desired concentration. For example, if 2.5 mg/mL is the desired concentration and the weight of compound is 13.7 mg, then the amount of solvent to be added is 3.94 mL (13.7 mg/2.5 mg/mL=3.94 mLs). Methanol is used as the solvent to dissolve the test compounds. Further dilution of stock is done in sterile, deioinzed water. Drug stocks are kept frozen at −70° C., protected from light.
# (§4) MICs are determined by the broth microdilution method in accordance with the NCCLS guidelines. In brief, organism suspensions are adjusted to a 0.5 McFarland standard to yield a final inoculum between 3×10^5 and 7×10^5 CFU/mL. Drug dilutions and inocula are made in sterile, cation adjusted Mueller-Hinton Broth (CAMHB) (Remel) for all but S. pneumoniae [CAMHB with 2-5% lysed horse blood (Remel)] and H. influenzae [Haemophilus Test Medium (Remel)]. An inoculum volume of 100 μl is added to wells containing 100 μl of broth with 2-fold serial dilutions of drug. All inoculated microdilution trays are incubated in ambient air at 35° C. for 18-24 hours, except for S. pneumoniae, and H. influenzae (both at 5-10% CO2).
# (§5) Following appropriate incubation, the MIC is determined and the MIC is defined as the lowest concentration of the drug that prevented visible growth.
# [1] = test system: S. epidermidis Step_14990; type: cell-based; settings: Table 5, Strain ID B: S. epidermidis Step_14990; unit assumed
# Method: as §1, §2, §3, §4, §5
# E. faecalis Enfa_29212 = type: cell-based; settings: Table 5, Strain ID D: E. faecalis Enfa_29212; unit assumed
# Method: as §1, §2, §3, §4, §5
# S. pyogenes Stpy_8668 = type: cell-based; settings: Table 5, Strain ID E: S. pyogenes Stpy_8668
# Method: as §1, §2, §3, §4, §5
# S. aureus Stau_29213 = type: cell-based; settings: Table 5, Strain ID A: S. aureus Stau_29213; unit assumed
# Method: as §1, §2, §3, §4, §5
# [2] = test system: S. epidermidis Step_f50654 Pen S; type: cell-based; settings: Table 5, Strain ID C: S. epidermidis Step_f50654; unit assumed
# Method: as §1, §2, §3, §4, §5
# [3] = test system: S. pneumoniae Stpn_Mef 5654; type: cell-based, Streptococcus pneumoniae; settings: Table 5, Strain ID K: S. pneumoniae Stpn_Mef 5654; unit assumed
# Method: as §1, §2, §3, §4, §5
# [4] = test system: S. pneumoniae Stpn_Erm S 4297; type: cell-based, Streptococcus pneumoniae; settings: Table 5, Strain ID J: S. pneumoniae Stpn_Erm S 4297
# Method: as §1, §2, §3, §4, §5
# [5] = test system: S. pneumoniae Stpn_297-749 Pen R; type: cell-based, Streptococcus pneumoniae; settings: Table 5, Strain ID G: S. pneumoniae Stpn_297-749
# Method: as §1, §2, §3, §4, §5
# [6] = test system: S. pneumoniae Stpn_280-962 Pen S; type: cell-based, Streptococcus pneumoniae; settings: Table 5, Strain ID H: S. pneumoniae Stpn_280-962
# Method: as §1, §2, §3, §4, §5
# S. pneumoniae Stpn_49619 = type: cell-based, Streptococcus pneumoniae; settings: Table 5, Strain ID F: S. pneumoniae Stpn_49619
# Method: as §1, §2, §3, §4, §5
# [7] = test system: S. pneumoniae Stpn_Mef S 3427; type: cell-based, Streptococcus pneumoniae; settings: Table 5, Strain ID L: S. pneumoniae Stpn_Mef S 3427; unit assumed
# Method: as §1, §2, §3, §4, §5
# [8] = test system: S. pneumoniae Stpn_Erm 6849; type: cell-based, Streptococcus pneumoniae; settings: Table 5, Strain ID I: S. pneumoniae Stpn_Erm 6849; unit assumed
# Method: as §1, §2, §3, §4, §5
SMILES,MIC (H. influenzae Hain_49247),MIC [1],MIC (E. faecalis Enfa_29212),MIC (S. pyogenes Stpy_8668),MIC (S. aureus Stau_29213),MIC [2],MIC [3],MIC ([4]; unit assumed),MIC [5],MIC [6],MIC (S. pneumoniae Stpn_49619),MIC [7],MIC [8],MIC [4],MIC ([5]; unit assumed)
"CC[C@H]1OC(=O)[C@H](C)C(=O)[C@H](C)[C@@H](OC2O[C@H](C)C[C@H](N(C)C)[C@H]2O)[C@@](C)(OC)C[C@@H](C)C(=O)[C@H](C)[C@H]2N(CCCCn3cnc(-c4cccnc4)c3C)C(=O)O[C@]12CC (stereo partly drawn) [Example 21, (3aS,4R,7R,9R,10R,11S,13R,15R,15aR)-3a,4-diethyl-11-methoxy-7,9,11,13,15-pentamethyl-1-[4-(5-methyl-4-pyridin-3-yl-1H-imidazol-1-yl)butyl]-2,6,8,14-tetraoxotetradecahydro-2H-oxacyclotetradecino[4,3-d][1,3]oxazol-10-yl 3,4,6-trideoxy-3-(dimethylamino)-D-xylo-hexopyranoside]",12.5 µg/mL,0.4 µg/mL,0.1 µg/mL,≦0.05,0.4 µg/mL,0.4 µg/mL,0.78 µg/mL,0.1 µg/mL,≦0.05,≦0.05,≦0.05,0.1 µg/mL,0.2 µg/mL,,
"CC[C@H]1OC(=O)[C@H](C)C(=O)[C@H](C)[C@@H](OC2O[C@H](C)C[C@H](N(C)C)[C@H]2O)[C@@](C)(OC)C[C@@H](C)C(=O)[C@H](C)[C@H]2N(CCCCn3cnc4ncccc43)C(=O)O[C@]12CC (stereo partly drawn) [Example 22, (3aS,4R,7R,9R,10R,11S,13R,15R,15aR)-3a,4-diethyl-1-[4-(1H-imidazo[4,5-b]pyridin-1-yl)butyl]-11-methoxy-7,9,11,13,15-pentamethyl-2,6,8,14-tetraoxotetradecahydro-2H-oxacyclotetradecino[4,3-d][1,3]oxazol-10-yl 3,4,6-trideoxy-3-(dimethylamino)-D-xylo-hexopyranoside]",3.13 µg/mL,0.4 µg/mL,0.2 µg/mL,≦0.05,0.4 µg/mL,0.4 µg/mL,0.78 µg/mL,0.1 µg/mL,≦0.05,≦0.05,≦0.05,0.2 µg/mL,0.2 µg/mL,,
"CC[C@H]1OC(=O)[C@H](C)C(=O)[C@H](C)[C@@H](OC2O[C@H](C)C[C@H](N(C)C)[C@H]2O)[C@@](C)(OC)C[C@@H](C)C(=O)[C@H](C)[C@H]2N(CCCCn3cnc(-c4ccncc4)c3)C(=O)O[C@]12CC (stereo partly drawn) [Example 28, (3aS,4R,7R,9R,10R,11S,13R,15R,15aR)-3a,4-diethyl-11-methoxy-7,9,11,13,15-pentamethyl-2,6,8,14-tetraoxo-1-[4-(4-pyridin-4-yl-1H-imidazol-1-yl)butyl]tetradecahydro-2H-oxacyclotetradecino[4,3-d][1,3]oxazol-10-yl 3,4,6-trideoxy-3-(dimethylamino)-D-xylo-hexopyranoside]",3.13 µg/mL,0.4 µg/mL,0.1 µg/mL,≦0.05,0.4 µg/mL,0.4 µg/mL,0.78 µg/mL,0.4 µg/mL,≦0.05,≦0.05,≦0.05,0.2 µg/mL,> 50 µg/mL,,

# Second part, the compound after the results:
MIC (H. influenzae Hain_49247),MIC [1],MIC (E. faecalis Enfa_29212),MIC (S. pyogenes Stpy_8668),MIC (S. aureus Stau_29213),MIC [2],MIC [3],MIC ([4]; unit assumed),MIC [5],MIC [6],MIC (S. pneumoniae Stpn_49619),MIC [7],MIC [8],MIC [4],MIC ([5]; unit assumed),SMILES
6.25 µg/mL,0.78 µg/mL,0.2 µg/mL,≦0.05,1.56 µg/mL,0.78 µg/mL,0.4 µg/mL,0.2 µg/mL,≦0.05,≦0.05,≦0.05,0.1 µg/mL,0.78 µg/mL,,,"CC[C@H]1OC(=O)[C@H](C)C(=O)[C@H](C)[C@@H](OC2O[C@H](C)C[C@H](N(C)C)[C@H]2O)[C@@](C)(OC)C[C@@H](C)C(=O)[C@H](C)[C@H]2N(CCN(C)Cc3cccnc3)C(=O)O[C@]12CC (stereo partly drawn) [Example 23, (3aS,4R,7R,9R,10R,11S,13R,15R,15aR)-3a,4-diethyl-11-methoxy-7,9,11,13,15-pentamethyl-1-{2-[methyl(pyridin-3-ylmethyl)amino]ethyl}-2,6,8,14-tetraoxotetradecahydro-2H-oxacyclotetradecino[4,3-d][1,3]oxazol-10-yl 3,4,6-trideoxy-3-(dimethylamino)-D-xylo-hexopyranoside]"
3.13 µg/mL,0.2 µg/mL,0.1 µg/mL,≦0.05,0.4 µg/mL,0.2 µg/mL,0.4 µg/mL,0.1 µg/mL,≦0.05,≦0.05,≦0.05,0.1 µg/mL,0.1 µg/mL,,,"CC[C@H]1OC(=O)[C@H](C)C(=O)[C@H](C)[C@@H](OC2O[C@H](C)C[C@H](N(C)C)[C@H]2O)[C@@](C)(OC)C[C@@H](C)C(=O)[C@H](C)[C@H]2N(CCCCn3cnc(-c4cncnc4)c3)C(=O)O[C@]12CC (stereo partly drawn) [Example 25, (3aS,4R,7R,9R,10R,11S,13R,15R,15aR)-3a,4-diethyl-11-methoxy-7,9,11,13,15-pentamethyl-2,6,8,14-tetraoxo-1-[4-(4-pyrimidin-5-yl-1H-imidazol-1-yl)butyl]tetradecahydro-2H-oxacyclotetradecino[4,3-d][1,3]oxazol-10-yl 3,4,6-trideoxy-3-(dimethylamino)-D-xylo-hexopyranoside]"
3.13 µg/mL,0.2 µg/mL,0.2 µg/mL,≦0.05,0.2 µg/mL,0.2 µg/mL,0.4 µg/mL,,≦0.05,≦0.05,≦0.05,0.1 µg/mL,0.2 µg/mL,≦0.05,,"CC[C@H]1OC(=O)[C@H](C)C(=O)[C@H](C)[C@@H](OC2O[C@H](C)C[C@H](N(C)C)[C@H]2O)[C@@](C)(OC)C[C@@H](C)C(=O)[C@H](C)[C@H]2N(CCCCn3cnc(-c4cnccn4)c3)C(=O)O[C@]12CC (stereo partly drawn) [Example 26, (3aS,4R,7R,9R,10R,11S,13R,15R,15aR)-3a,4-diethyl-11-methoxy-7,9,11,13,15-pentamethyl-2,6,8,14-tetraoxo-1-[4-(4-pyrazin-2-yl-1H-imidazol-1-yl)butyl]tetradecahydro-2H-oxacyclotetradecino [4,3-d][1,3]oxazol-10-yl 3,4,6-trideoxy-3-(dimethylamino)-D-xylo-hexopyranoside]"
1.56 µg/mL,0.1 µg/mL,0.05 µg/mL,≦0.025,0.1 µg/mL,0.1 µg/mL,0.4 µg/mL,0.1 µg/mL,,≦0.025,≦0.025,0.1 µg/mL,3.13 µg/mL,,0.025 µg/mL,"CC[C@H]1OC(=O)[C@@](C)(F)C(=O)[C@H](C)[C@@H](OC2O[C@H](C)C[C@H](N(C)C)[C@H]2O)[C@@](C)(OC)C[C@@H](C)C(=O)[C@H](C)[C@H]2N(CCCCn3cnc4ncccc43)C(=O)O[C@]12CC (stereo partly drawn) [Example 27, (3aS,4R,7S,9R,10R,11S,13R,15R,15aR)-3a,4-diethyl-7-fluoro-1-[4-(1H-imidazo[4,5-b]pyridin-1-yl)butyl]-11-methoxy-7,9,11,13,15-pentamethyl-2,6,8,14-tetra-oxotetradecahydro-2H-oxacyclotetradecino[4,3-d][1,3]oxazol-10-yl 3,4,6-trideoxy-3-(dimethylamino)-D-xylo-hexopyranoside]"
